System in one series: not listed separately
The series can be described thus: Liver microsomal stability assay. The format is in vitro ADME. Particulars: human liver microsomes, 0.5 mg/mL protein, 37° C. On the procedure: The in vitro stabilities of compounds of interest were determined for various species using pooled male and female human, pooled male Sprague-Dawley rat, pooled male Cynomolgus monkey, and pooled male Beagle dog liver microsomes at microsomal protein concentrations of 0.5 mg/mL. Incubations were carried out in a potassium phosphate buffer (50 mM). The NADPH-generating system was composed of NADP+ (1 mM), magnesium chloride (3 mM), EDTA (1 mM), glucose-6-phosphate (5 mM) and glucose-6-phosphate dehydrogenase (1 Unit/mL) for all experiments. Compounds of interest in DMSO were added to achieve a final incubation concentration of […] (final DMSO content was 0.1% v/v and final acetonitrile content was 0.9%). The final incubation volume was 400 μL. Incubations were conducted at 37° C. for 0, 5, 10, 20, 40 and 60 minutes in a shaking water bath and terminated by removing 50 µL of incubation mixture and adding to 100 μL of ice cold acetonitrile containing internal standard. Following precipitation by centrifugation at 3500 rpm and 4° C. for 30 minutes, compounds of interest and internal standard were analyzed in the resultant supernatant using a multiple reaction monitoring (MRM) LC-MS/MS method. MS conditions were optimized for each analyte.
The following Table (Table D) illustrates human liver microsomal stability of exemplary compounds.
A general note: Liver microsomes are a subcellular fraction often used to study metabolism.
Chain of hSSTR4 (P31391 whole entry): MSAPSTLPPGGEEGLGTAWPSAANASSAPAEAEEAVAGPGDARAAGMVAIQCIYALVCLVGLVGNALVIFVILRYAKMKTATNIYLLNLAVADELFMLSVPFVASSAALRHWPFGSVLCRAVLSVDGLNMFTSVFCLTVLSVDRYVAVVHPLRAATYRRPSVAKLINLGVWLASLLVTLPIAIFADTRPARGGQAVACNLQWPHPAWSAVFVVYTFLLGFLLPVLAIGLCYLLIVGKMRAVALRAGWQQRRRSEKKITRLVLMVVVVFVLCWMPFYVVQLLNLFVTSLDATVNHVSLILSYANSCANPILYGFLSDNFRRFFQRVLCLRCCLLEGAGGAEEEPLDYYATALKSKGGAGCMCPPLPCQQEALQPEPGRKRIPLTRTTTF
Take `COc1cc(C#N)cc2[nH]c(-c3c(N)ncc(-c4cc(F)cc(F)c4)c3N3CC[C@@H]4NCCO[C@H]4C3)nc12` [Compound 3-18, 2-{4-[(4αS,8αS)-octahydro-1H-pyrido[3,4-b][1,4]oxazin-6-yl]-2-amino-5-(3,5-difluorophenyl)pyridin-3-yl}-4-methoxy-1H-1,3-benzodiazole-6-carbonitrile]: the “HLM t1/2” value turned out to be 1.65 h.

The target of a further series is hSSTR4 (Homo sapiens (Human), UniProt P31391). In words: selectivity for inhibition of cAMP via hSSTR2 vs. hSSTR4. Format: cell-based. Particulars: Table B. An excerpt:
General overview: All five SSTR subtypes are Gi coupled G-protein coupled receptors (GPCRs) that lead to decreases in intracellular cyclic AMP (cAMP) when activated by an agonist. Therefore, measurement of intracellular cAMP levels can be used to assess whether compounds of the invention are agonists of SSTR subtypes (John Kelly, Troy Stevens, W. Joseph Thompson, and Roland Seifert, Current Protocols in Pharmacology, 2005, 2.2.1-2.2). One example of an intracellular cAMP assay is described below.
Four days prior to the assay, 5,000 Chinese hamster ovary cells (CHO-K1, ATCC #CCL-61) stably expressing the human somatostatin receptor subtype 2 are plated in each well of a 96-well tissue culture-treated plate in Ham's F12 growth media (ThermoFisher #10-080-CM) supplemented with 10% donor bovine serum (Gemini Bio-Products #100-506), 100 U/mL penicillin; 100 ug/mL streptomycin; 2 mM L-glutamine (Gemini Bio-Products #400-110) and 0.2 mg/mL hygromycin B (GoldBio #31282-04-9). The cells are cultured at 37° C., 5% CO2 and 95% humidity. On the day of the assay, the media is aspirated and the cells are treated with 50 μL of 1.6 μM NKH477 (Sigma #N3290) plus various dilutions of compounds of the invention in assay buffer [1× Hank's Balanced Salt Solution (ThermoFisher #SH3058802), 0.5 mM HEPES pH 7.4, 0.1% bovine serum albumin, 0.2 mM 3-Isobutyl-1-methylxanthine (IBMX, VWR #200002-790)]. The cells are incubated for 20 minutes at 37° C. (the final concentration of the compounds of the invention are typically 0-10,000 nM). The cells are treated with 50 μL of lysis buffer (HRTF cAMP kit, Cisbio). The lysate is transferred to 384-well plates and cAMP detection and visualization antibodies are added and incubated for 1-24 hours at room temperature. The time-resolved fluorescent signal is read with a Tecan M1000Pro multiplate reader. The intracellular cAMP concentrations are calculated by regression to a standard curve and are plotted vs. the concentration of the compounds of the invention and the EC50 of the compounds are calculated using standard methods. All data manipulations are in GraphPad Prism v6.
Turning to `COc1cc(F)cc2nc(-c3c(C#N)ncc(-c4cc(C)cc(F)c4)c3N3CCC(N)CC3)[nH]c12` [Compound 2-2, 4-(4-aminopiperidin-1-yl)-3-(6-fluoro-4-methoxy-1H-1,3-benzodiazol-2-yl)-5-(3-fluoro-5-methylphenyl)pyridine-2-carbonitrile], the “hSST4/hSST2 (ratio)” value was “e (e = between 1 and 0.5)”.

On to `COc1cc(F)cc2nc(-c3c(C(N)=O)ncc(-c4cc(C)cc(F)c4)c3N3CCC(N)CC3)[nH]c12` [Compound 2-3, 4-(4-aminopiperidin-1-yl)-3-(6-fluoro-4-methoxy-1H-1,3-benzodiazol-2-yl)-5-(3-fluoro-5-methylphenyl)pyridine-2-carboxamide], for which the “hSST4/hSST2 (ratio)” value was “b (b = between 15 and 50)”.

Regarding `COc1cc(C#N)cc2[nH]c(-c3c(N)ncc(-c4cc(C)cc(F)c4)c3N3CCC(N)CC3)nc12` [Compound 1-1, 2-[2-amino-4-(4-aminopiperidin-1-yl)-5-(3-fluoro-5-methylphenyl)pyridin-3-yl]-4-methoxy-1H-1,3-benzodiazole-6-carbonitrile], the “hSST4/hSST2 (ratio)” value is “a (a = above 50)”.

For the molecule `COC(=O)c1ncc(-c2cc(C)cc(F)c2)c(N2CCC(N)CC2)c1-c1nc2cc(F)cc(OC)c2[nH]1` [Compound 2-1, methyl 4-(4-aminopiperidin-1-yl)-3-(6-fluoro-4-methoxy-1H-1,3-benzodiazol-2-yl)-5-(3-fluoro-5-methylphenyl)pyridine-2-carboxylate], the “hSST4/hSST2 (ratio)” value was “d (d = between 1 and 2.5)”.

Still in this series, the particulars now being: Table C.
As to `COc1cc(C#N)cc2[nH]c(-c3c(N)ncc(-c4cccc(F)c4)c3N3CC[C@@H]4NCCO[C@H]4C3)nc12` [Compound 3-11, 2-{4-[(4αS,8αS)-octahydro-1H-pyrido[3,4-b][1,4]oxazin-6-yl]-2-amino-5-(3-fluorophenyl)pyridin-3-yl}-4-methoxy-1H-1,3-benzodiazole-6-carbonitrile], the “hSST4/hSST2 (ratio)” value is “a (a = above 50)”.

On to `N#Cc1cc(F)c2nc(-c3c(N)ncc(-c4cc(F)cc(F)c4)c3N3CC[C@@H]4OCCN[C@H]4C3)[nH]c2c1` [Compound 3-19, 2-{4-[(4αS,8αS)-octahydro-1H-pyrido[3,4-b][1,4]oxazin-6-yl]-2-amino-5-(3,5-difluorophenyl)pyridin-3-yl}-4-fluoro-1H-1,3-benzodiazole-6-carbonitrile], for which the “hSST4/hSST2 (ratio)” value is “b (b = between 15 and 50)”.

With `CNc1ncc(-c2cc(F)cc(Cl)c2)c(N2CC[C@@H]3NCCO[C@H]3C2)c1-c1nc2c(OC)cc(F)cc2[nH]1` [Compound 3-13, 4-[(4αS,8αS)-octahydro-1H-pyrido[3,4-b][1,4]oxazin-6-yl]-5-(3-chloro-5-fluorophenyl)-3-(6-fluoro-4-methoxy-1H-1,3-benzodiazol-2-yl)-N-methylpyridin-2-amine], the “hSST4/hSST2 (ratio)” value was “a (a = above 50)”.

On to `CNc1ncc(-c2cccc(F)c2)c(N2CC[C@@H]3NCCO[C@H]3C2)c1-c1nc2c(OC)cc(C#N)cc2[nH]1` [Compound 3-12, 2-[4-[(4αS,8αS)-octahydro-1H-pyrido[3,4-b][1,4]oxazin-6-yl]-5-(3-fluorophenyl)-2-(methylamino)pyridin-3-yl]-4-methoxy-1H-1,3-benzodiazole-6-carbonitrile], for which the “hSST4/hSST2 (ratio)” value is reported as “a (a = above 50)”.

Take `COc1cc(C#N)cc2[nH]c(-c3c(N)ncc(-c4cc(F)cc(F)c4)c3N3CC[C@@H]4NCCO[C@H]4C3)nc12` [Compound 3-18, 2-{4-[(4αS,8αS)-octahydro-1H-pyrido[3,4-b][1,4]oxazin-6-yl]-2-amino-5-(3,5-difluorophenyl)pyridin-3-yl}-4-methoxy-1H-1,3-benzodiazole-6-carbonitrile]: the “hSST4/hSST2 (ratio)” value was “b (b = between 15 and 50)”.

In the case of `Nc1ncc(-c2cccc(F)c2)c(N2CC[C@@H]3NCCO[C@H]3C2)c1-c1nc2c(F)cc(F)cc2[nH]1` [Compound 3-3, 4-[(4αS,8αS)-octahydro-1H-pyrido[3,4-b][1,4]oxazin-6-yl]-3-(4,6-difluoro-1H-1,3-benzodiazol-2-yl)-5-(3-fluorophenyl)pyridin-2-amine], the “hSST4/hSST2 (ratio)” value was “c (c = between 2.5 and 15)”.

On to `COc1cc(F)cc2[nH]c(-c3c(N)ncc(-c4cccc(F)c4)c3N3CC[C@@H]4NCCO[C@H]4C3)nc12` [Compound 3-9, 4-[(4αS,8αS)-octahydro-1H-pyrido[3,4-b][1,4]oxazin-6-yl]-3-(6-fluoro-4-methoxy-1H-1,3-benzodiazol-2-yl)-5-(3-fluorophenyl)pyridin-2-amine], for which the “hSST4/hSST2 (ratio)” value is “c (c = between 2.5 and 15)”.

Take `CNc1ncc(-c2cccc(F)c2)c(N2CC[C@@H]3NCCO[C@H]3C2)c1-c1nc2c(OC)cc(F)cc2[nH]1` [Compound 3-10, 4-[(4αS,8αS)-octahydro-1H-pyrido[3,4-b][1,4]oxazin-6-yl]-3-(6-fluoro-4-methoxy-1H-1,3-benzodiazol-2-yl)-5-(3-fluorophenyl)-N-methylpyridin-2-amine]: the “hSST4/hSST2 (ratio)” value is listed as “a (a = above 50)”.

For `COc1cc(F)cc2[nH]c(-c3c(N)ncc(-c4cc(F)cc(Cl)c4)c3N3CC[C@@H]4OCCN[C@H]4C3)nc12` [Compound 3-17, 4-[(4αS,8αS)-octahydro-1H-pyrido[3,4-b][1,4]oxazin-6-yl]-5-(3-chloro-5-fluorophenyl)-3-(6-fluoro-4-methoxy-1H-1,3-benzodiazol-2-yl)pyridin-2-amine], the “hSST4/hSST2 (ratio)” value is “c (c = between 2.5 and 15)”.
